Laboratory results reported in ChEMBL document CHEMBL1201862, “PubChem BioAssay data set” (2004).
Calls of active or inactive are those of the source.

How the values were obtained:
[1] = viability of uninfected HEp-2 cells – cell-based, HTS, cytotoxicity control for RSV inhibitor project, dose response (AID 2410); format: functional; conditions: human respiratory syncytial virus
Streptokinase A = biological target: T1, Streptokinase A (Streptococcus pyogenes serotype M1, UniProt P10520); assay: viability-normalized secreted streptokinase activity reduction – plasminogen activation absorbance, OD405, dose response (AID 1914); format: functional, Streptococcus pyogenes M1 GAS;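 note: secreted streptokinase activity via plasminogen activation per viability signal from cell pellet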
T1 sequence (P10520 whole entry): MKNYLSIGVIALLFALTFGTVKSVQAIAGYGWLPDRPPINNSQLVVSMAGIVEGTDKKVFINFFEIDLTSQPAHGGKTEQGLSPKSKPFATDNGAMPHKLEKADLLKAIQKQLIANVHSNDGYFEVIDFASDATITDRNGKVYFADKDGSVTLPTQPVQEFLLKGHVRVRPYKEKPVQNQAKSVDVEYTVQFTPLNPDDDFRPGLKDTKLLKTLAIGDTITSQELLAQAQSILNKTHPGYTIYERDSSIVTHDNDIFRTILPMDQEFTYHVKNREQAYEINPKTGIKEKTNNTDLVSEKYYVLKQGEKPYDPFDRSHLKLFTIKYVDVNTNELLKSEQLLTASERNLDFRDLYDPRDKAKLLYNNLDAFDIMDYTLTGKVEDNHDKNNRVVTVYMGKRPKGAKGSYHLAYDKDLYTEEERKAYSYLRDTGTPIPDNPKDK

[2] = biological target: T2, Heat shock factor protein 1 (Mus musculus, UniProt P38532); assay: enhancement of HSF1-driven luciferase signal – cell-based, NIH3T3, luminescence, dose retest, confirmation (AID 435004); format: functional;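 note: stress induced by proteasome inhibitor MG132 added 30 min after compound; luciferase reporter driven by HSF1 response element in NIH3T3 cells; actives raise luminescence as potentiators of the MG132 stress response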
T2 sequence (P38532 whole entry): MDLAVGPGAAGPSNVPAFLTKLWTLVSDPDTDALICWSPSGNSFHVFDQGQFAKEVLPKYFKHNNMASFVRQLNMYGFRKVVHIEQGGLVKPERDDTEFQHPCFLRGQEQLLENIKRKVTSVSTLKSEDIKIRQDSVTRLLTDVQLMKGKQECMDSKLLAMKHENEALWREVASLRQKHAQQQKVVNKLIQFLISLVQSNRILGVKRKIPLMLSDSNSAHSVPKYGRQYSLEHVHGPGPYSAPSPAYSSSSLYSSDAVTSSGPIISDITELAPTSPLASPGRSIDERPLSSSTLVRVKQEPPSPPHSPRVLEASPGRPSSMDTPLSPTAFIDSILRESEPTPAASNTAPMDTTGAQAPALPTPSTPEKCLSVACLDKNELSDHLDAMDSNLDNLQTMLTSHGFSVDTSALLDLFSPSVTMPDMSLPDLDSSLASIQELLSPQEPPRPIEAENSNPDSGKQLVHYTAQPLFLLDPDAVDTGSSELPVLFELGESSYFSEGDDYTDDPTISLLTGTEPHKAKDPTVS

Protein skinhead-1 = biological target: T3, Protein skinhead-1 (Caenorhabditis elegans, UniProt P34707); format: functional
T3 sequence (P34707 whole entry): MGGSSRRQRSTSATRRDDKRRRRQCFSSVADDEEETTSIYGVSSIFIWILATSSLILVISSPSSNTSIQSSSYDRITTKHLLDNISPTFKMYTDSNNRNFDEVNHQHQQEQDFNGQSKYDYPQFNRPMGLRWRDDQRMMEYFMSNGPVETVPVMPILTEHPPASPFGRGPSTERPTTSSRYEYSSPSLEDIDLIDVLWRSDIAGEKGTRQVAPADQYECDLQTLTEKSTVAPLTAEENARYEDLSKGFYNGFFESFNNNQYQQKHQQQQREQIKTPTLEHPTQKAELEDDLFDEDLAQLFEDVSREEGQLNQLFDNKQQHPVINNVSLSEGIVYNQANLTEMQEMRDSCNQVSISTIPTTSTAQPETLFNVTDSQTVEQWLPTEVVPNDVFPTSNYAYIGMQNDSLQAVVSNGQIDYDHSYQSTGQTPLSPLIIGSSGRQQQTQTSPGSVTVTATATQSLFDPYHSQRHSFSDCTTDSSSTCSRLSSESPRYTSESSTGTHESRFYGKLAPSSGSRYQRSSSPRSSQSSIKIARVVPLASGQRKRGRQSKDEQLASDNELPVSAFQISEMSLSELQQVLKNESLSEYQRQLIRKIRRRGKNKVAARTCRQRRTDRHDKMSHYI

[3] = biological target: T2, Heat shock factor protein 1; assay: decrease of HSF1-responsive luciferase luminescence – cell-based, NIH3T3, dose retest, confirmation (AID 2382); format: functional;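 note: NIH3T3 fibroblasts with HSF1-driven luciferase reporter stressed by proteasome inhibitor MG132; luminescence from HSF1-driven luciferase expression after 8 hours of MG132 stress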
Streptococcus = assay: GAS UMAA2166 growth inhibition – luminescence, BacTiterGlo, counter-screen for streptokinase expression inhibitor project, dose response (AID 1915); format: functional, organism-based;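 note: potency for reduction of bacterial viability or growth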
[4] = tested on: Streptococcus sp. 'group A'; assay: Streptococcus pyogenes SK(-)GAS viability under kanamycin – luminescence, BacTiterGlo, confirmation, counter-screen for streptokinase expression inhibitor project, dose response (AID 1900); format: functional, organism-based
H9c2 = assay: cells; format: functional, cell-based; conditions: Rattus norvegicus, H9c2, Myocardium;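 note: confirmatory concentration-response retest of ultra-high-throughput screening hits for modulation of myocardial damage; cell death induced by hydrogen peroxide oxidative stress; compound pretreatment for 60 min then peroxide exposure for 2 h; potency is for protecting the cells against peroxide damage rather than for killing them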
Cytochrome P450 2C19 = Cytochrome P450 2C19 (Homo sapiens, UniProt P33261); assay: Cytochrome panel assay with activity outcomes. Panel member name: p450-cyp2c19 Compounds with AC50 equal or less than 10 uM are considered active; format: functional; conditions: read-out: AC50
Cytochrome P450 2C9 = Cytochrome P450 2C9 (Homo sapiens, UniProt P11712)
[5] = luciferase reporter signal suppression in cells – H4 neuroglioma cells, luminescence, dose response (AID 1990); format: functional, cell-based
[6] = alpha-synuclein stem-loop luciferase translation blockers – H4 neuroglioma cells, luminescence, confirmation (AID 1988); format: functional, cell-based
[7] = Luminescence Cell-Based Dose Response HTS to Identify Inhibitors of 5'UTR Stem-Loop Driven Prion Protein mRNA Translation in H4 Neuroglioblastoma Cells. [Related pubchem assays: 1827 (Project Summary), 1813 (Primary HTS)]; format: functional
[8] = Luminescence Cell-Based Dose Retest to Confirm Inhibitors of Cancer Stem Cells. [Related pubchem assays (depositor defined):AID2717, AID2721]; format: functional; conditions: Homo sapiens

Cytochrome P450 2C19, sequence (P33261 whole entry): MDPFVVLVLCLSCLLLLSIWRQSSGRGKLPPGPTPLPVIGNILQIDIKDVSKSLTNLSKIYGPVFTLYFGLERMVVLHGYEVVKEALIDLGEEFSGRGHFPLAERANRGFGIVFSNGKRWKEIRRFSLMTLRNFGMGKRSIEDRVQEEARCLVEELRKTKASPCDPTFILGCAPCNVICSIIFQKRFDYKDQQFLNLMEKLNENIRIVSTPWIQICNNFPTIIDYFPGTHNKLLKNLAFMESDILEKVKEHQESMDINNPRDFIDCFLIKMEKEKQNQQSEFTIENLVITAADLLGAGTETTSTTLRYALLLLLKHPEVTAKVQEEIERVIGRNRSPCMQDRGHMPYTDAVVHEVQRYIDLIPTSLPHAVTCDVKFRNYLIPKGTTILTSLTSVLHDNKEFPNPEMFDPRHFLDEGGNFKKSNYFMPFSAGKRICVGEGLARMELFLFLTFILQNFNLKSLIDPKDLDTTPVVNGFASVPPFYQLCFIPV
Cytochrome P450 2C9, sequence (P11712 whole entry): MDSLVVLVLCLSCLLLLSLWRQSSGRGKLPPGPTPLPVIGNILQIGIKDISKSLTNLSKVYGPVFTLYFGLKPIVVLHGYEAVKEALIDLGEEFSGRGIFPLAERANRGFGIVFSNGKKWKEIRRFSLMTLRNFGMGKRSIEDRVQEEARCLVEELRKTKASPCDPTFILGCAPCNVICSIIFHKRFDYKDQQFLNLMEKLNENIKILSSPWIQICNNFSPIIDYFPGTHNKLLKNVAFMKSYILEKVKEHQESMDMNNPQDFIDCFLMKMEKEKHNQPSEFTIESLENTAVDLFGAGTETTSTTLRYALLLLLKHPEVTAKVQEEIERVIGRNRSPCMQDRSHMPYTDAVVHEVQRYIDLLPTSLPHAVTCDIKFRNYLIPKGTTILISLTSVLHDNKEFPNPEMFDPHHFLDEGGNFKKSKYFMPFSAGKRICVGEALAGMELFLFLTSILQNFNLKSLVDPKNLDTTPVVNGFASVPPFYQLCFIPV

O=[N+]([O-])c1ccc(N2CCc3ccccc3C2)nc1
CC50 [1]: 19.6 µM (active)

Cc1nnc(SC(C(=O)Nc2cc(Cl)cc(Cl)c2)c2ccccc2)[nH]c1=O (stereo unspecified)
EC50 (Streptokinase A): > 150 µM (not active)

CCOC(=O)Cc1cnc(NC(=O)NC(C(=O)OCC)(c2ccccc2)C(F)(F)F)s1 (stereo unspecified)
EC50 [2]: > 260 µM (inactive)

O=C(Nc1nc(SCc2ccc(F)cc2)ns1)c1ccco1
IC50 (Protein skinhead-1): 70.5 µM (inactive)

COc1ccccc1N1CCN(C(=O)c2sc3nc(C)nc(N4CCN(c5ccccn5)CC4)c3c2C)CC1
CC50 [1]: 20 µM (active)

O=S(=O)(c1ccccc1)N1CCCC(c2nc(O)c3nnn(Cc4cccc(Cl)c4)c3n2)C1 (stereo unspecified)
CC50 [1]: 13.1 µM (active)

CC(=O)Nc1ccc(Nc2nc3c(S(=O)(=O)c4ccc(C)c(C)c4)nnn3c3ccccc23)cc1
EC50 [2]: 112 µM (active)

Cc1ccc(Cl)cc1N1CCN(C2CCCCC2NS(=O)(=O)c2ccccc2)CC1 (stereo unspecified)
EC50 [2]: > 260 µM (inactive)

Cc1ccc(NC(=O)c2ccccc2O)cc1
EC50 [2]: 35.5 µM (active)

CCOC(=O)Nc1nc(-c2ccc(F)cc2F)cs1
IC50 (Protein skinhead-1): 64.9 µM (inactive)

COCCCNC(=O)c1cn(CC(C)C)c(=O)c2c1c1ccccc1n2C
EC50 [3]: > 195 µM (not active)
IC50 (Protein skinhead-1): > 100 µM (inactive)

O=C1N=C(Nc2ccc(Cl)cc2)SC1Cc1cc(Cl)ccc1Cl (stereo unspecified)
EC50 (Streptococcus): 7.38 µM (active)
EC50 [4]: 2.64 µM (active)
EC50 (Streptokinase A): > 150 µM (not active)

Cc1nc(NC(=O)/C=C/c2ccc(Cl)cc2Cl)sc1C(=O)N(C)C
EC50 [3]: > 195 µM (not active)

Cc1ccc(S(=O)(=O)NCCC(=O)N2CCN(S(=O)(=O)c3ccccc3)CC2)cc1C
EC50 [3]: > 195 µM (not active)

CCCN1C(=O)/C(=C/c2c[nH]nc2-c2ccccc2)SC1=S
CC50 [1]: 20.7 µM (active)

O=C(Nc1ccc(Cl)cc1)C(c1ccccc1)N(CCO)CCO (stereo unspecified)
IC50 (Protein skinhead-1): > 100 µM (inactive)

O=C1CCCN1CCC1CCN(C(=O)Nc2ccccc2)CC1
EC50 [3]: > 195 µM (not active)

CCN(CC)c1ccc([N+](=O)[O-])cc1C(=O)N1CCOCC1
EC50 [2]: > 260 µM (inactive)

O=C(Nc1ccc(Nc2ccccc2)cc1)c1ccc(Cl)c([N+](=O)[O-])c1
CC50 [1]: 18.7 µM (active)

O=C(CCc1nc(O)c2ccccc2n1)NCC(=O)Nc1ccc(F)c(F)c1
IC50 (H9c2): 25.2 µM (active)

Clc1c(-c2nnc3n2CCC3)sc2ccccc12
CC50 [1]: 30.9 µM (active)

O=C(CN1CCN(c2ccc(F)cc2)CC1)Nc1cccc(C(F)(F)F)c1
CC50 [1]: 29.2 µM (active)

CCN(CC)S(=O)(=O)c1cc(C(=O)Nc2cc(C)on2)ccc1Cl
EC50 [3]: > 195 µM (not active)

CC(C)c1ccc(NC(=O)CNC(=O)Cn2cnc3ccccc3c2=O)cc1
EC50 [3]: 60.8 µM (active)

CN(C)C=O.COc1cc(/C=C/c2nc3ccccc3c(=O)n2-c2ccc(O)cc2)ccc1O
IC50 (H9c2): > 79 µM (inactive)

Brc1ccc(-c2nc(-c3cccnc3)no2)o1
IC50 (Protein skinhead-1): 42.7 µM (active)

CCCN=C(S)NC1CC2CCCC(C1)N2Cc1ccc(F)cc1 (stereo unspecified)
EC50 [3]: > 195 µM (not active)

COC(=O)c1cc(NC(=O)c2cc(-c3ccc(OC)cc3)oc2C(F)(F)F)ccc1N1CCOCC1
CC50 [1]: 13.4 µM (active)

COc1cc(NC(=O)c2cc(C)nc3ccccc23)cc(OC)c1
EC50 [3]: > 195 µM (not active)

COC(=O)c1c(C)[nH]c(C)c1-c1cccc([N+](=O)[O-])c1
EC50 [3]: > 195 µM (not active)

CC(Cc1ccccc1)C(=O)Nc1ccccc1 (stereo unspecified)
EC50 [3]: > 195 µM (not active)

Cc1ccc(C2C(C#N)=C(N)SC(N)=C2C#N)c(C)c1
EC50 [2]: > 260 µM (inactive)

O=C(COC(=O)Cc1nnc(O)c2ccccc12)NNC(=O)c1ccc(Cl)cc1
IC50 (H9c2): > 79 µM (inactive)

Oc1cc(-c2ccccc2Cl)c2c(n1)CCC2
IC50 (Protein skinhead-1): > 100 µM (inactive)

Cc1cccc(C(=O)Nc2ccc(C(=O)/C=C/c3cccs3)cc2)c1
IC50 (Protein skinhead-1): > 100 µM (inactive)

COc1ccc(-c2cc(C(=O)N(C)Cc3ccccc3F)c3ccccc3n2)cc1OC
IC50 (H9c2): 30.2 µM (inactive)

CCCCn1nc(NC(=O)c2cccs2)c2cc3cc(OC)ccc3nc21
IC50 (H9c2): > 79 µM (inactive)

CC1Cc2ccccc2N1C(=O)c1cc2c(=O)n3ccccc3nc2n1C (stereo unspecified)
AC50 (Cytochrome P450 2C19): 7.08 µM (inconclusive)
AC50 (Cytochrome P450 2C9): 14.1 µM (inconclusive)
IC50 (H9c2): 59.3 µM (inactive)

CCn1c(SCC(=O)Nc2oc(-c3ccccc3)c(-c3ccccc3)c2C#N)nnc1-c1ccco1
EC50 (Streptococcus): > 150 µM (not active)
EC50 [4]: 10.7 µM (active)
EC50 (Streptokinase A): 58.8 µM (active)

Cc1cc2c(cc1S(=O)(=O)N1CCc3ccccc31)NC(=O)CO2
CC50 [1]: 13.8 µM (active)

COCCCn1c(Cc2csc(Nc3ccc(F)cc3)n2)nnc1SCC(N)=O
EC50 [2]: > 260 µM (inactive)

O=C1CN(C(=O)c2ccc(Br)o2)C(c2ccccc2)c2cc(Br)ccc2N1 (stereo unspecified)
IC50 (Protein skinhead-1): 83.6 µM (inactive)

Cc1ccc(NC(=O)C(OC(=O)c2ccc(NC(N)=O)cc2)c2ccccc2)cc1Cl (stereo unspecified)
EC50 (Streptococcus): 9.31 µM (active)
EC50 [4]: 9.28 µM (active)
EC50 (Streptokinase A): > 150 µM (not active)

COc1ccc(-c2cc(C(=O)NNC(=O)c3csc(N4CCOCC4)n3)c3ccccc3n2)cc1
IC50 (H9c2): > 79 µM (inactive)

CCOC(=O)CN1CCC(c2cc(-c3ccc(Cl)cc3)[nH]n2)CC1
EC50 [2]: > 260 µM (inactive)

O=C(NN1C(=O)C2C(C1=O)C1C=CC2C12CC2)c1ccc(Cl)cc1 (stereo unspecified)
EC50 [2]: > 260 µM (inactive)

COC(=O)c1cc2ccc(OC)cc2c2cc(OC)c(OC)cc12
IC50 (H9c2): > 79 µM (inactive)

COc1cc(/C=N/NC(=O)c2cccnc2)ccc1OS(=O)(=O)c1cc(C)ccc1C
IC50 (H9c2): > 79 µM (inactive)

Cc1cccc(C)c1OCC(=O)N/N=C/C=C/c1ccco1
EC50 [2]: > 260 µM (inactive)

COCCNC(=O)c1ccc(-c2ccc(OC)cc2C)c2ccoc12
IC50 (Protein skinhead-1): > 100 µM (inactive)

COc1ccc(CCCC(=O)N/N=C/c2cccc(OC)c2O)cc1C
EC50 (Streptococcus): 3.61 µM (active)
EC50 [4]: 2.9 µM (active)
EC50 [5]: 11.1 µM (active)
EC50 [6]: 10.6 µM (active)
EC50 [7]: 48.6 µM (active)
EC50 (Streptokinase A): > 150 µM (not active)
AC50 [8]: 0.936 µM (active)

Oc1ccc(Br)cc1/C=N/NC(=S)NCCc1ccccc1
EC50 (Streptococcus): 6.21 µM (active)
EC50 [4]: 1.58 µM (active)
EC50 (Streptokinase A): > 150 µM (not active)
AC50 [8]: 4.29 µM (active)

O=C[C@H](O)[C@@H](O)[C@H](O)CO [XYLOSE]
EC50 [3]: > 195 µM (not active)
